Source: PubChem BioAssay AID256 (DTP/NCI, 2004)
Values joined by “and” are separate entries in the source; they are usually repeats but may differ in a detail not shown here. Equal values may be shown once. Toxic doses and inconclusive results are not listed. How the source made its calls: active means survival T/C of 150% or more; inactive means T/C below 125% in these data.

Test system: CD2F1 mice, L1210 leukemia ip, survival T/C
Assay: NCI In Vivo Anticancer Drug Screen. Data for tumor model L1210 Leukemia (intraperitoneal) in CD2F1 (CDF1) mice
Details: higher = longer survival
Method in brief: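 In this screen, transplantable tumors were grown in mice given either the compound or its vehicle. Results were expressed as the treated measurement relative to the control measurement.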

[1] = endpoint: median survival time, dose: 50.0 mg/kg/injection, schedule: Q04DX002 (ip), vehicle: saline with Tween-80
[2] = endpoint: median survival time, dose: 100.0 mg/kg/injection, schedule: Q04DX002 (ip), vehicle: saline with Tween-80
[3] = endpoint: median survival time, dose: 200.0 mg/kg/injection, schedule: Q04DX002 (ip), vehicle: saline with Tween-80
[4] = endpoint: mean survival time, dose: 50.0 mg/kg/injection, schedule: Q01DX009 (ip), vehicle: saline with Tween-80
[5] = endpoint: mean survival time, dose: 100.0 mg/kg/injection, schedule: Q01DX009 (ip), vehicle: saline with Tween-80
[6] = endpoint: mean survival time, dose: 100.0 mg/kg/injection, schedule: Q04DX003 (ip), vehicle: saline with Tween-80
[7] = endpoint: mean survival time, dose: 200.0 mg/kg/injection, schedule: Q04DX003 (ip), vehicle: saline with Tween-80
[8] = endpoint: mean survival time, dose: 25.0 mg/kg/injection, schedule: Q01DX009 (ip), vehicle: saline with Tween-80
[9] = endpoint: mean survival time, dose: 100.0 mg/kg/injection, schedule: Q04DX003 (ip), vehicle: saline
[10] = endpoint: mean survival time, dose: 200.0 mg/kg/injection, schedule: Q04DX003 (ip), vehicle: saline
[11] = endpoint: mean survival time, dose: 100.0 mg/kg/injection, schedule: Q04DX003 (ip), vehicle: Klucel (hydroxypropylcellulose) (HPC)
[12] = endpoint: mean survival time, dose: 400.0 mg/kg/injection, schedule: Q04DX003 (ip), vehicle: saline with Tween-80
[13] = endpoint: mean survival time, dose: 200.0 mg/kg/injection, schedule: Q01DX009 (ip), vehicle: saline with Tween-80
[14] = endpoint: mean survival time, dose: 400.0 mg/kg/injection, schedule: Q01DX009 (ip), vehicle: saline with Tween-80
[15] = endpoint: median survival time, dose: 3.12 mg/kg/injection, schedule: Q04DX003 (ip), vehicle: saline
[16] = endpoint: median survival time, dose: 6.25 mg/kg/injection, schedule: Q04DX003 (ip), vehicle: saline
[17] = endpoint: median survival time, dose: 12.5 mg/kg/injection, schedule: Q04DX003 (ip), vehicle: saline
[18] = endpoint: median survival time, dose: 100.0 mg/kg/injection, schedule: Q04DX003 (ip), vehicle: saline
[19] = endpoint: median survival time, dose: 200.0 mg/kg/injection, schedule: Q04DX003 (ip), vehicle: saline

Measured: T/C

N#Cc1c(Cl)cc(C2(O)C3C=CC2CC3)cc1Cl (centres undefined)
inactive: endpoint: median survival time, dose: 25.0 mg/kg/injection, schedule: Q04DX002 (ip), vehicle: saline with Tween-80 112 % of control | [1] 100 % of control | [2] 100 % of control | [3] 112 % of control

COc1ccc(C2(C(=O)O)CC(C)=C(C)CC2C(=O)O)cc1 (centres undefined)
inactive: [4] 88 % of control | [5] 93 % of control | [6] 97 % of control | [7] 95 % of control

O=C(/C(=C\c1ccccc1)N1CCOCC1)c1ccc(Cl)cc1
inactive: [8] 95 % of control | [4] 97 % of control | [5] 86 % of control

O=Cc1cc(=O)n2c3c(cccc13)CCC2
inactive: [9] 98 % of control | [10] 98 % of control

Nc1cccc2cn[nH]c12
inactive: endpoint: mean survival time, dose: 100.0 mg/kg/injection, schedule: Q04DX003 (ip), vehicle: other 98 % of control | endpoint: mean survival time, dose: 200.0 mg/kg/injection, schedule: Q04DX003 (ip), vehicle: other 96 % of control | endpoint: mean survival time, dose: 400.0 mg/kg/injection, schedule: Q04DX003 (ip), vehicle: other 101 % of control

CCC(=O)c1ccc2c(c1)N(CCCN1CCN(CCO)CC1)c1ccccc1S2
inactive: endpoint: mean survival time, dose: 25.0 mg/kg/injection, schedule: Q04DX003 (ip), vehicle: Klucel (hydroxypropylcellulose) (HPC) 97 % of control | [11] 116 % of control

O=C1/C(=C/c2ccc(Cl)c(Cl)c2)CCC/C1=C\c1ccc(Cl)c(Cl)c1
inactive: [11] 98 % of control | endpoint: mean survival time, dose: 200.0 mg/kg/injection, schedule: Q04DX003 (ip), vehicle: Klucel (hydroxypropylcellulose) (HPC) 100 % of control | endpoint: mean survival time, dose: 400.0 mg/kg/injection, schedule: Q04DX003 (ip), vehicle: Klucel (hydroxypropylcellulose) (HPC) 98 % of control

S=c1[nH]cc[nH]1
inactive: endpoint: mean survival time, dose: 100.0 mg/kg/injection, schedule: Q01DX001 (ip), vehicle: saline 103 % of control | endpoint: mean survival time, dose: 200.0 mg/kg/injection, schedule: Q01DX001 (ip), vehicle: saline 100 % of control | endpoint: mean survival time, dose: 400.0 mg/kg/injection, schedule: Q01DX001 (ip), vehicle: saline 96 % of control

O=c1[nH]cc(CCCc2ccccc2)c(=O)[nH]1
inactive: [6] 97 % of control | [7] 99 % of control | [12] 90 % of control

CC(=O)C(C)(C)N(C)c1ccccc1
inactive: [9] 97 % of control | [10] 93 % of control | endpoint: mean survival time, dose: 400.0 mg/kg/injection, schedule: Q04DX003 (ip), vehicle: saline 93 % of control

CCC(=O)Oc1[nH]c(C)c(C(C)=O)c1C
inactive: [5] 100 % of control | [6] 102 % of control | [13] 97 % of control | [7] 97 % of control | [14] 100 % of control | [12] 94 % of control

Cc1cn(C2CC(O)C(CO)O2)c(=O)nc1NCc1ccco1 (centres undefined)
inactive: endpoint: median survival time, dose: 12.5 mg/kg/injection, schedule: Q01DX005 (ip), vehicle: water 103 % of control | endpoint: median survival time, dose: 25.0 mg/kg/injection, schedule: Q01DX005 (ip), vehicle: water 103 % of control | endpoint: median survival time, dose: 50.0 mg/kg/injection, schedule: Q01DX005 (ip), vehicle: water 104 % of control | endpoint: median survival time, dose: 100.0 mg/kg/injection, schedule: Q01DX005 (ip), vehicle: water 105 % of control | endpoint: median survival time, dose: 200.0 mg/kg/injection, schedule: Q01DX005 (ip), vehicle: water 102 % of control

CN(C)c1ccc(-c2nc3ccccc3s2)cc1
inactive: endpoint: mean survival time, dose: 50.0 mg/kg/injection, schedule: Q01DX009 (ip), vehicle: Klucel (hydroxypropylcellulose) (HPC) 106 % of control | endpoint: mean survival time, dose: 100.0 mg/kg/injection, schedule: Q01DX009 (ip), vehicle: Klucel (hydroxypropylcellulose) (HPC) 96 % of control | endpoint: mean survival time, dose: 200.0 mg/kg/injection, schedule: Q01DX009 (ip), vehicle: Klucel (hydroxypropylcellulose) (HPC) 98 % of control

Nc1nc(N)c2nc(CNc3ccc(C(=O)NC(CCC(=O)NC(CCC(=O)O)C(=O)O)C(=O)O)cc3)cnc2n1 (centres undefined)
inactive: endpoint: mean survival time, dose: 0.7 mg/kg/injection, schedule: Q01DX009 (ip), vehicle: sodium bicarbonate 96 % of control | endpoint: mean survival time, dose: 1.1 mg/kg/injection, schedule: Q01DX009 (ip), vehicle: sodium bicarbonate 92 % of control

Cc1[nH]c2ccccc2c1C(=O)C(N)=O
inactive: [5] 100 % of control | [6] 92 % of control | [13] 97 % of control | [7] 86 % of control | [14] 95 % of control | [12] 92 % of control

CCCCOc1ccc(NC(=O)CCl)cc1
inactive: [8] 96 % of control | endpoint: mean survival time, dose: 25.0 mg/kg/injection, schedule: Q04DX003 (ip), vehicle: saline 95 % of control | [4] 96 % of control | endpoint: mean survival time, dose: 50.0 mg/kg/injection, schedule: Q04DX003 (ip), vehicle: saline 101 % of control | [9] 94 % of control

CC(C)(C)c1ccc(C(=O)N2CCOC23CCCCC3)cc1
inactive: endpoint: median survival time, dose: 50.0 mg/kg/injection, schedule: Q01DX005 (ip), vehicle: saline with Tween-80 101 % of control and 104 % of control | endpoint: median survival time, dose: 100.0 mg/kg/injection, schedule: Q01DX005 (ip), vehicle: saline with Tween-80 96 % of control and 104 % of control | endpoint: median survival time, dose: 200.0 mg/kg/injection, schedule: Q01DX005 (ip), vehicle: saline with Tween-80 98 % of control and 101 % of control | endpoint: median survival time, dose: 400.0 mg/kg/injection, schedule: Q01DX005 (ip), vehicle: saline with Tween-80 100 % of control | endpoint: median survival time, dose: 800.0 mg/kg/injection, schedule: Q01DX005 (ip), vehicle: saline with Tween-80 96 % of control and 101 % of control

Cc1cccc(NC(=O)/C=C/C(=O)O)c1
inactive: [5] 94 % of control | [13] 100 % of control

CCCC(=O)Nc1ncnc2c1[nH]c(=O)n2C1OC2COP(=O)(O)OC2C1OC(=O)CCC (centres undefined)
inactive: endpoint: mean survival time, dose: 6.25 mg/kg/injection, schedule: Q01DX005 (ip), vehicle: water 97 % of control | endpoint: mean survival time, dose: 12.5 mg/kg/injection, schedule: Q01DX005 (ip), vehicle: water 93 % of control | endpoint: mean survival time, dose: 25.0 mg/kg/injection, schedule: Q01DX005 (ip), vehicle: water 97 % of control | endpoint: mean survival time, dose: 50.0 mg/kg/injection, schedule: Q01DX005 (ip), vehicle: water 97 % of control | endpoint: mean survival time, dose: 100.0 mg/kg/injection, schedule: Q01DX005 (ip), vehicle: water 89 % of control

O=C(O)C1=CCCc2ccc(F)cc21
inactive: [1] 100 % of control | [2] 100 % of control | [3] 88 % of control | endpoint: median survival time, dose: 400.0 mg/kg/injection, schedule: Q04DX002 (ip), vehicle: saline with Tween-80 111 % of control

O=C(O)C(=O)C(O)C(O)C(O)CO.O=C(O)C(=O)C(O)C(O)C(O)CO.[NH-]C1CCCCC1[NH-].[Pt+2] (centres undefined)
inactive: [15] 110 % of control and 111 % of control | [16] 115 % of control and 112 % of control | [17] 122 % of control
active: endpoint: median survival time, dose: 50.0 mg/kg/injection, schedule: Q04DX003 (ip), vehicle: saline 185 % of control and 188 % of control | [18] 250 % of control and 270 % of control | [19] 175 % of control

CCCCCCCCC/C(=N\Nc1ccc([N+](=O)[O-])cc1[N+](=O)[O-])c1ccccc1
inactive: [5] 97 % of control | [13] 87 % of control | [14] 94 % of control

CC(=O)NC(CCc1ccc(Cl)c(Cl)c1)c1cccc(O)c(=O)c1 (centres undefined)
inactive: endpoint: median survival time, dose: 3.12 mg/kg/injection, schedule: Q01DX009 (ip), vehicle: Klucel (hydroxypropylcellulose) (HPC) 94 % of control | endpoint: median survival time, dose: 6.25 mg/kg/injection, schedule: Q01DX009 (ip), vehicle: Klucel (hydroxypropylcellulose) (HPC) 100 % of control | endpoint: median survival time, dose: 12.5 mg/kg/injection, schedule: Q01DX009 (ip), vehicle: Klucel (hydroxypropylcellulose) (HPC) 106 % of control | endpoint: median survival time, dose: 25.0 mg/kg/injection, schedule: Q01DX009 (ip), vehicle: Klucel (hydroxypropylcellulose) (HPC) 102 % of control | endpoint: median survival time, dose: 50.0 mg/kg/injection, schedule: Q01DX009 (ip), vehicle: Klucel (hydroxypropylcellulose) (HPC) 103 % of control | endpoint: median survival time, dose: 100.0 mg/kg/injection, schedule: Q01DX009 (ip), vehicle: Klucel (hydroxypropylcellulose) (HPC) 116 % of control

O=C(O)CC(=O)CC(=O)O.[NH-]C1CCCCC1[NH-].[Pt+2]
active: [18] 162 % of control and 294 % of control | [19] 241 % of control
inactive: [15] 101 % of control and 108 % of control | [16] 114 % of control and 108 % of control | [17] 118 % of control and 112 % of control | endpoint: median survival time, dose: 25.0 mg/kg/injection, schedule: Q04DX003 (ip), vehicle: saline 122 % of control
